Laboratory results reported in ChEMBL document CHEMBL5150002, “Molecular Glues for Targeted Protein Degradation: From Serendipity to Rational Discovery” (J Med Chem, 2021).

Columns and labels:
[1] = target: T1, DNA damage-binding protein 1/Cyclin-dependent kinase 12/Cyclin-K (Homo sapiens, UniProt O75909+Q16531+Q9NYV4); test: Molecular glue activity at human CDK12 (715 to 1052 residues)/Cyclin K/human DDB1-[…]-RBX1 expressed in baculovirus expression system assessed as Cyclin K protein degradation
T1 sequence (O75909 whole entry, the tested form may be a part): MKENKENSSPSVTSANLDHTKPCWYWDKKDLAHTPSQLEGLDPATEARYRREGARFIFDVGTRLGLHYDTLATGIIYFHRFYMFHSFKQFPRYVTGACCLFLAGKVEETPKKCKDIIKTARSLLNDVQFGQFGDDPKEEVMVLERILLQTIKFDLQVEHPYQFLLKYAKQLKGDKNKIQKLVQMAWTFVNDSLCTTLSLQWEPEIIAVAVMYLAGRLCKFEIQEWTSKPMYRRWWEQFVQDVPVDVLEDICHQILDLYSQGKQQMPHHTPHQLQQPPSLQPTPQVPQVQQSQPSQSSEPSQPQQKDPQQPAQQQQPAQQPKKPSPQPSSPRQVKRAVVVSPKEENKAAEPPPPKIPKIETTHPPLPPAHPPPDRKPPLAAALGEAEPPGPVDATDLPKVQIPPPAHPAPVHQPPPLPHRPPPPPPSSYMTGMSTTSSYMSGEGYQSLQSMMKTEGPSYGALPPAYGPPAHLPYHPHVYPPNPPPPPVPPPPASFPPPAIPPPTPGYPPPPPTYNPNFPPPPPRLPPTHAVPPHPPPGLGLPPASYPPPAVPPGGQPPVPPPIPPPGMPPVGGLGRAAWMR
T1 sequence (Q9NYV4 whole entry, the tested form may be a part): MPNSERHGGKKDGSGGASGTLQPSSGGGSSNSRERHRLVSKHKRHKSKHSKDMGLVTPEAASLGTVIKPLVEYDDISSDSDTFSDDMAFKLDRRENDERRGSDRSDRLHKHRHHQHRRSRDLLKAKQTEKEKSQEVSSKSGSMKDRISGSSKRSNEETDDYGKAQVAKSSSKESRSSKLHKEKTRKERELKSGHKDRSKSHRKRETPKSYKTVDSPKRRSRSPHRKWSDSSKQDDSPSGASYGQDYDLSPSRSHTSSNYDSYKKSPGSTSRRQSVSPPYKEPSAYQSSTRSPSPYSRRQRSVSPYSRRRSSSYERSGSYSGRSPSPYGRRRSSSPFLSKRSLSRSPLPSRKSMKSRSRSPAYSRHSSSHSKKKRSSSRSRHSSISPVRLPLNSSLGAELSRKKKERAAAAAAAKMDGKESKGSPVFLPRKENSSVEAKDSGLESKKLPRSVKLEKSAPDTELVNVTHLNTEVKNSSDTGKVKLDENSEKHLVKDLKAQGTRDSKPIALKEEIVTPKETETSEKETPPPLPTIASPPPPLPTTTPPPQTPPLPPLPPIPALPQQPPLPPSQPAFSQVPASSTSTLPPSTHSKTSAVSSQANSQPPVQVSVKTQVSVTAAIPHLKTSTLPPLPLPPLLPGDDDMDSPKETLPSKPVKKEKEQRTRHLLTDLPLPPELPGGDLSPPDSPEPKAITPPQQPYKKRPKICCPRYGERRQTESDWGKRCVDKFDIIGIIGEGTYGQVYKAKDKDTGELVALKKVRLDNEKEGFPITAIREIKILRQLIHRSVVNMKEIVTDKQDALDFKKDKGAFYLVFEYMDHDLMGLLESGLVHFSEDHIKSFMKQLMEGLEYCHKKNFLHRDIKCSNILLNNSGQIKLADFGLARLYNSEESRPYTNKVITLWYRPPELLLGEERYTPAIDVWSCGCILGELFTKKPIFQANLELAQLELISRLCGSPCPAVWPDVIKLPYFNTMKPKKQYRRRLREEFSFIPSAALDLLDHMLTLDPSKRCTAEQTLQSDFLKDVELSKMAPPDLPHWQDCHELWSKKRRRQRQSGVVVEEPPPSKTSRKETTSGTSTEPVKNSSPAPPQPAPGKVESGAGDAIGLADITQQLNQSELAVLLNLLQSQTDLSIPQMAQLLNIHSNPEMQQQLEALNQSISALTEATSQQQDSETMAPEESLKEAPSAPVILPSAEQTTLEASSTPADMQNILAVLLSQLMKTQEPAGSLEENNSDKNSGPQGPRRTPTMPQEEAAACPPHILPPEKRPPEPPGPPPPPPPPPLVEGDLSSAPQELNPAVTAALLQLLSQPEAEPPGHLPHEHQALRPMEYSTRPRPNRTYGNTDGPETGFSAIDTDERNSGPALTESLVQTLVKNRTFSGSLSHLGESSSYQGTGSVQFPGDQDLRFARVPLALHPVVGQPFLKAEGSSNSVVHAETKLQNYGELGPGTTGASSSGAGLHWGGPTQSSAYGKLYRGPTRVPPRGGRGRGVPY
T1 sequence (Q16531 whole entry, the tested form may be a part): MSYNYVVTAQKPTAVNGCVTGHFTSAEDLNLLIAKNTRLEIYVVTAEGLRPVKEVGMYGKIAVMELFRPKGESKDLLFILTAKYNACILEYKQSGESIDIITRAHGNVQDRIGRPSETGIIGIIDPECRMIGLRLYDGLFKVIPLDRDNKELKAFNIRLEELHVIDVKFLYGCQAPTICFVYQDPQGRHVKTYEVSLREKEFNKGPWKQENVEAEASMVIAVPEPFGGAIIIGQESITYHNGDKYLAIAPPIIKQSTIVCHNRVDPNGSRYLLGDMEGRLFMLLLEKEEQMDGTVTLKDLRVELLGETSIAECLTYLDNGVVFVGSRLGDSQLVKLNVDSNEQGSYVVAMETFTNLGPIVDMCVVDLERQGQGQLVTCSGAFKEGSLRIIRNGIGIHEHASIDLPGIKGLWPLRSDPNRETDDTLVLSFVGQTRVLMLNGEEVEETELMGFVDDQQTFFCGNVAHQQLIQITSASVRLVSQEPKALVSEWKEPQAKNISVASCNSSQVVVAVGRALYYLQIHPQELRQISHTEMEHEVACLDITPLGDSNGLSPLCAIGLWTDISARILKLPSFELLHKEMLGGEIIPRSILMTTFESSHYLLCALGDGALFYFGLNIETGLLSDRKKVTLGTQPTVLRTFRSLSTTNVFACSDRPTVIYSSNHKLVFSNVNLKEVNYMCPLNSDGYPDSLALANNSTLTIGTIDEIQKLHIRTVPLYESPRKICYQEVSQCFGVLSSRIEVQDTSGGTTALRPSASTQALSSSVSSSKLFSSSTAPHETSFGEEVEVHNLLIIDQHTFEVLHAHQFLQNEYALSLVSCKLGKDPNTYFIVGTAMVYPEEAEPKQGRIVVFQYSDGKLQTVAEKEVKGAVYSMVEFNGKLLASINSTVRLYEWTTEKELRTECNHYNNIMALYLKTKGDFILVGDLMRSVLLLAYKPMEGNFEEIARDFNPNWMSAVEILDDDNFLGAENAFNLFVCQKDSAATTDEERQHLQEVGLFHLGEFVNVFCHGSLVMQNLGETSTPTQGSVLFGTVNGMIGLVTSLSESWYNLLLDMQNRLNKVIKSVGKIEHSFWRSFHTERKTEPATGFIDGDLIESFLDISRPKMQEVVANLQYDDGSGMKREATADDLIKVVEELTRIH

[2] = target: T1, DNA damage-binding protein 1/Cyclin-dependent kinase 12/Cyclin-K; test: Molecular glue activity at human CDK12/CCNK (11 to 267 residues)/human DDB1-CUL4-RBX1 expressed in baculovirus expression system in human 293 TA cells assessed as CCNK protein degradation

SMILES | EC50 [1] [nM] | EC50 [2] [nM]
Cc1cccc(Nc2nc(CC(=O)Nc3ncc(C)s3)cs2)n1 | 461 | 132
Cc1cnc(NC(=O)Cc2csc(Nc3cccc(CO)n3)n2)s1 | – | 41
